Assay results: PubChem BioAssay (NCI)
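GI50: concentration for 50% inhibition of growth. Definition used: TGI = concentration required for complete inhibition of growth.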

Legend:
Experiment in all cases: growth of human tumour cells (NCI), 384-well format
786-0 renal = system: 786-0 renal
A498 renal = system: A498 renal
A549 NSCLC = system: A549 NSCLC
ACHN renal = system: ACHN renal
BT-549 breast = system: BT-549 breast
CAKI-1 renal = system: CAKI-1 renal
CCRF-CEM leukemia = system: CCRF-CEM leukemia
COLO 205 colon = system: COLO 205 colon
DU-145 prostate = system: DU-145 prostate
HCT-116 colon = system: HCT-116 colon
HCT-15 colon = system: HCT-15 colon
HL-60(TB) leukemia = system: HL-60(TB) leukemia
HOP-62 NSCLC = system: HOP-62 NSCLC
HOP-92 NSCLC = system: HOP-92 NSCLC
HT29 colon = system: HT29 colon
IGROV1 ovarian = system: IGROV1 ovarian
K-562 leukemia = system: K-562 leukemia
KM12 colon = system: KM12 colon
LOX IMVI melanoma = system: LOX IMVI melanoma
M14 melanoma = system: M14 melanoma
MALME-3M melanoma = system: MALME-3M melanoma
MCF7 breast = system: MCF7 breast
MDA-MB-231 breast = system: MDA-MB-231 breast
MDA-MB-435 melanoma = system: MDA-MB-435 melanoma
MDA-MB-468 breast = system: MDA-MB-468 breast
MOLT-4 leukemia = system: MOLT-4 leukemia
NCI-H226 lung = system: NCI-H226 lung
NCI-H23 lung = system: NCI-H23 lung
NCI-H322M lung = system: NCI-H322M lung
NCI-H460 NSCLC = system: NCI-H460 NSCLC
NCI-H522 lung = system: NCI-H522 lung
NCI/ADR-RES ovarian = system: NCI/ADR-RES ovarian
OVCAR-3 ovarian = system: OVCAR-3 ovarian
OVCAR-4 ovarian = system: OVCAR-4 ovarian
OVCAR-5 ovarian = system: OVCAR-5 ovarian
OVCAR-8 ovarian = system: OVCAR-8 ovarian
PC-3 prostate = system: PC-3 prostate
RPMI-8226 leukemia = system: RPMI-8226 leukemia
RXF 393 renal = system: RXF 393 renal
SF-268 CNS = system: SF-268 CNS
SF-295 CNS = system: SF-295 CNS
SF-539 CNS = system: SF-539 CNS
SK-MEL-2 melanoma = system: SK-MEL-2 melanoma
SK-MEL-28 melanoma = system: SK-MEL-28 melanoma
SK-MEL-5 melanoma = system: SK-MEL-5 melanoma
SK-OV-3 ovarian = system: SK-OV-3 ovarian
SN12C renal = system: SN12C renal
SNB-19 CNS = system: SNB-19 CNS
SR leukemia = system: SR leukemia
SW-620 colon = system: SW-620 colon
T-47D breast = system: T-47D breast
TK-10 renal = system: TK-10 renal
U251 glioblastoma = system: U251 glioblastoma
UACC-257 melanoma = system: UACC-257 melanoma
UACC-62 melanoma = system: UACC-62 melanoma
UO-31 renal = system: UO-31 renal

CC(C)(/C=C(\C#N)C(=O)N1CCC[C@@H](n2nc(-c3ccc(Oc4ccccc4)cc3F)c3c(N)ncnc32)C1)N1CCN(C2COC2)CC1
GI50 ([…]-0 renal): 3.07 µM | TGI (786-0 renal): 10.4 µM | GI50 (A498 renal): 2.39 µM | TGI (A498 renal): 5.72 µM | GI50 (A549 NSCLC): 3.55 µM | TGI (A549 NSCLC): 13.2 µM | GI50 (ACHN renal): 9.03 µM | TGI (ACHN renal): 21.2 µM | GI50 (BT-549 breast): 1.21 µM | TGI (BT-549 breast): 2.78 µM | GI50 (CAKI-1 renal): 3.41 µM | TGI (CAKI-1 renal): 9.34 µM | GI50 (CCRF-CEM leukemia): 1.49 µM | TGI (CCRF-CEM leukemia): 2.86 µM | GI50 (COLO 205 colon): 1.63 µM | TGI (COLO 205 colon): 5.8 µM | GI50 (DU-145 prostate): 9.84 µM | TGI (DU-145 prostate): 29.1 µM | GI50 (HCT-116 colon): 2.9 µM | TGI (HCT-116 colon): 10.6 µM | GI50 (HCT-15 colon): 4.52 µM | TGI (HCT-15 colon): 15.1 µM | GI50 (HL-60(TB) leukemia): 1.5 µM | TGI (HL-60(TB) leukemia): 2.89 µM | GI50 (HOP-62 NSCLC): 2.47 µM | TGI (HOP-62 NSCLC): 5.82 µM | GI50 (HOP-92 NSCLC): 1.38 µM | TGI (HOP-92 NSCLC): 3.76 µM | GI50 (HT29 colon): 1.73 µM | TGI (HT29 colon): 3.48 µM | GI50 (IGROV1 ovarian): 2.94 µM | TGI (IGROV1 ovarian): 9.69 µM | GI50 (K-562 leukemia): 1.24 µM | TGI (K-562 leukemia): 2.82 µM | GI50 (KM12 colon): 0.712 µM | TGI (KM12 colon): 2.47 µM | GI50 (LOX IMVI melanoma): 2.3 µM | TGI (LOX IMVI melanoma): 4.09 µM | GI50 (M14 melanoma): 2.08 µM | TGI (M14 melanoma): 5.29 µM | GI50 (MALME-3M melanoma): 1.28 µM | TGI (MALME-3M melanoma): 5.26 µM | GI50 (MCF7 breast): 2.28 µM | TGI (MCF7 breast): 10.4 µM | GI50 (MDA-MB-231 breast): 2.54 µM | TGI (MDA-MB-231 breast): 7.28 µM | GI50 (MDA-MB-435 melanoma): 0.0551 µM | TGI (MDA-MB-435 melanoma): 0.448 µM | GI50 (MDA-MB-468 breast): 0.239 µM | TGI (MDA-MB-468 breast): 1.16 µM | GI50 (MOLT-4 leukemia): 0.157 µM | TGI (MOLT-4 leukemia): 0.46 µM | GI50 (NCI-H226 lung): 2.18 µM | TGI (NCI-H226 lung): 5.42 µM | GI50 (NCI-H23 lung): 3.51 µM | TGI (NCI-H23 lung): 9.62 µM | GI50 (NCI-H322M lung): 6.84 µM | TGI (NCI-H322M lung): 23.2 µM | GI50 (NCI-H460 NSCLC): 1.87 µM | TGI (NCI-H460 NSCLC): 3.72 µM | GI50 (NCI-H522 lung): 0.164 µM | TGI (NCI-H522 lung): 1.36 µM | GI50 (NCI/ADR-RES ovarian): 13.8 µM | TGI (NCI/ADR-RES ovarian): 27.1 µM | GI50 (OVCAR-3 ovarian): 0.289 µM | TGI (OVCAR-3 ovarian): 1.6 µM | GI50 (OVCAR-4 ovarian): 1.35 µM | TGI (OVCAR-4 ovarian): 7.72 µM | GI50 (OVCAR-5 ovarian): 10.5 µM | TGI (OVCAR-5 ovarian): 22.9 µM | GI50 (OVCAR-8 ovarian): 5.91 µM | TGI (OVCAR-8 ovarian): 18 µM | GI50 (PC-3 prostate): 3.73 µM | TGI (PC-3 prostate): 13.8 µM | GI50 (RPMI-8226 leukemia): 1.14 µM | TGI (RPMI-8226 leukemia): 2.38 µM | GI50 (RXF 393 renal): 1.19 µM | TGI (RXF 393 renal): 3.04 µM | GI50 (SF-268 CNS): 2.29 µM | TGI (SF-268 CNS): 7.3 µM | GI50 (SF-295 CNS): 9.51 µM | TGI (SF-295 CNS): 21.5 µM | GI50 (SF-539 CNS): 2.08 µM | TGI (SF-539 CNS): 5.39 µM | GI50 (SK-MEL-2 melanoma): 0.0857 µM | TGI (SK-MEL-2 melanoma): 1.08 µM | GI50 (SK-MEL-28 melanoma): 1.86 µM | TGI (SK-MEL-28 melanoma): 5.23 µM | GI50 (SK-MEL-5 melanoma): 1.41 µM | TGI (SK-MEL-5 melanoma): 2.92 µM | GI50 (SK-OV-3 ovarian): 1.23 µM | TGI (SK-OV-3 ovarian): 3 µM | GI50 (SN12C renal): 2.82 µM | TGI (SN12C renal): 7.62 µM | GI50 (SNB-19 CNS): 3.69 µM | TGI (SNB-19 CNS): 12.1 µM | GI50 (SR leukemia): 0.0378 µM | TGI (SR leukemia): 0.208 µM | GI50 (SW-620 colon): 1.87 µM | TGI (SW-620 colon): 3.63 µM | GI50 (T-47D breast): 2.33 µM | TGI (T-47D breast): 11 µM | GI50 (TK-10 renal): 6.64 µM | TGI (TK-10 renal): 18.9 µM | GI50 (U251 glioblastoma): 2.6 µM | TGI (U251 glioblastoma): 8.45 µM | GI50 (UACC-257 melanoma): 1.49 µM | TGI (UACC-257 melanoma): 3.81 µM | GI50 (UACC-62 melanoma): 1.12 µM | TGI (UACC-62 melanoma): 3.24 µM | GI50 (UO-31 renal): 7.98 µM | TGI (UO-31 renal): 20.3 µM
